Results reported in paper PMC11420946, “An Engineered Nisin Analogue with a Hydrophobic Moiety Attached at Position 17 Selectively Inhibits Enterococcus faecium Strains” (ACS Chemical Biology, 2024).
Converted amounts (≈) assume the structure as drawn.

What was measured:
S. aureus LMG10147 = test: Spot-on-lawn assay; type: cell-based; settings: triplicate
[1] = test system: E. faecium ATCC U0317 (ACRE); test: Spot-on-lawn assay; type: cell-based; settings: triplicate
[2] = test system: S. aureus LMG15975 (MRSA); test: Spot-on-lawn assay; type: cell-based; settings: triplicate
Escherichia coli CECT101 = test: Spot-on-lawn assay; type: cell-based; settings: triplicate
Enterococcus faecium = test: Agar well diffusion assay against Enterococcus faecium; type: cell-based; settings: for Antibacterial activity against Enterococcus faecium (in words): Figure 5, HPLC-purified peptide, 30 μL of 0.1 mg mL^–1 per well
Experimental: (§1) To confirm that this procedure yields the modified nisin and at high purity, HPLC analysis of purified 47 was performed (Figure S2). Based on the area of the peaks, the purity of 47 is 96%. Subsequently, 30 μL of 0.1 mg mL^–1 purified compound was added to the well to assess their activity.
(§2) Cultures grown overnight were introduced into 0.8% LB agar for Listeria monocytogenes or GM17 agar for Enterococcus faecium at a temperature of 45 °C, reaching a final concentration of 0.1% (v/v). Subsequently, 30 mL of the mixture was poured onto the plate. Upon solidification of the agar, 8 mm wells were created, and 30 μL of the aforementioned clicked solutions was spotted into the wells. The agar plate underwent overnight incubation at 37 °C followed by measurement of inhibition zones. By comparing the antimicrobial impact of the click chemistry products in this screening assay, we assume that the yields of the different reactions are similar. Zone diameters were recorded in millimeters, with the zone area (πr^2) minus the well area (πr^2) measured in millimeters.[44]

L. monocytogenes TT82E = test: Spot-on-lawn assay; type: cell-based; settings: triplicate
[3] = test system: E. faecium LMG16003 (VRE); test: Spot-on-lawn assay; type: cell-based; settings: triplicate
E. faecium LMG11423 = test: Spot-on-lawn assay; type: cell-based; settings: triplicate
[4] = test system: E. faecalis LMG16216 (VRE); test: Spot-on-lawn assay; type: cell-based; settings: triplicate
Listeria monocytogenes = test: Agar well diffusion assay against Listeria monocytogenes; type: cell-based; settings: Figure 4, second round; 30 μL click reaction solution in 8 mm well, LB agar, overnight 37 °C; triplicate
Experimental: as §1, §2

[5] = test system: L. monocytogenes LMG10470; test: Spot-on-lawn assay; type: cell-based; settings: triplicate
[6] = test system: E. faecium ATCC E1321 (AGRE); test: Spot-on-lawn assay; type: cell-based; settings: triplicate
B. cereus CH-85 = test: Spot-on-lawn assay; type: cell-based; settings: triplicate
[7] = test system: E. faecium ATCC E1162 (ARE); test: Spot-on-lawn assay; type: cell-based; settings: triplicate
[8] = Spot-on-lawn assay to measure peptide-lipid II complex formation; type: binding; settings: lipid II 300 μM, 2 μL spotted at edge of halo; lawns of E. faecium and S. aureus, overnight 37 °C
Experimental: To assess the interaction between the HPLC purified peptide and lipid II, an overnight culture was introduced into 0.8% GM17 medium for E. faecium or LB medium for S. aureus (w/v, temperature 45 °C) at a final concentration of 1% (v/v). Subsequently, this mixture was evenly distributed onto 10 mL plates. The binding affinity of the peptide and lipid II was further examined by applying purified lipid II (300 μM, 2 μL) to the periphery of the antibiotic inhibition halo. Briefly, HPLC purified antimicrobials were initially applied to the agar plate, and once the antimicrobial solution drops had dried, lipid II was spotted along the edge of the inhibition halo. The plates were then incubated overnight at 37 °C.

proteinase K = proteinase K (Parengyodontium album, UniProt P06873); test: Effect of proteolytic enzymes on antibacterial activity: proteinase K; settings: 30 μL peptide 1 mg mL^–1 in agar well with 1 mg mL^–1 proteinase K, pH 7.2, overnight 30 °C; read-out inhibition zone area on L. lactis MG1363 versus no-enzyme control; three independent experiments
proteinase K, sequence (P06873 106-384): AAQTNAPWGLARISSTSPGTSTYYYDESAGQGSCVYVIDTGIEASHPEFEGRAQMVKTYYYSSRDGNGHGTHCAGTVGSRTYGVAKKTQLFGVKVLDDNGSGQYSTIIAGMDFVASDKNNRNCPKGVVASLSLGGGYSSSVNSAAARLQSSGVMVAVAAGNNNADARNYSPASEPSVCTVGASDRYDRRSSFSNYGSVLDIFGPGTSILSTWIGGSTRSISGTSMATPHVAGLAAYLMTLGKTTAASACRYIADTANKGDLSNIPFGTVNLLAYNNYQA
Experimental: (§3) Next the resistance against the proteolytic enzymes trypsin, chymotrypsin, and protease K was investigated by adding these enzymes in separate experiments to assay wells followed by overnight incubation at 30 °C.
(§4) The impact of proteolytic enzymes and temperature on antimicrobial activity was investigated using the representative strain L. lactis MG1363 through the agar well diffusion assay. Thirty microliters of the HPLC purified peptide (1 mg mL^–1) was directly introduced into the agar well containing a final concentration of 1 mg mL^–1 proteolytic enzymes (pH 7.2) or no proteolytic enzyme (control). The plates were incubated overnight at 30 °C followed by the measurement of inhibition zones. Temperature stability was assessed by incubating the peptide at 22, 55, 70, and 90 °C for the specified duration.

chymotrypsin = test: Effect of proteolytic enzymes on antibacterial activity: chymotrypsin; settings: 30 μL peptide 1 mg mL^–1 in agar well with 1 mg mL^–1 chymotrypsin, pH 7.2, overnight 30 °C; read-out inhibition zone area on L. lactis MG1363 versus no-enzyme control; three independent experiments
Experimental: as §3, §4

human red blood cells = test: Hemolysis assay; type: cell-based; settings: 200 mg/L versus MIC
Experimental: Considering the potential therapeutic application of a bacteriocin, ensuring its safety is of critical importance. Previous studies have identified hemolytic activities in certain bacteriocins, such as listeriolysin S from Listeria monocytogenes([33]) and cytolysin from Enterococcus faecalis.[34] […] Therefore, a close evaluation of the safety of new bacteriocins is essential. In this study, a hemolytic activity assay was conducted to assess the safety of compounds 16 and 47. In this assay, human blood cells were incubated with varying concentrations of compound 16, compound 47, and nisin, ranging from 0.39 to 200 mg/L. Following a 1 h incubation at 37 °C, we measured the OD414 of the supernatants, and hemolytic activities were calculated, with 10% Triton X-100 serving as a positive control.
Erythrocytes were sourced from a healthy human volunteer donor, and whole human blood was subjected to centrifugation at 600g for 15 min. Subsequently, plasma was removed, and the erythrocytes were subjected to three washes with PBS (pH 7) by centrifugation at 600g for 15 min each. […] The supernatant was transferred to a 96-well plate, and absorbance was measured at a wavelength of 414 nm using a Thermo Scientific Varioskan LUX multimode microplate reader. The absorbance, relative to the positive control treated with 10% Triton X-100, was defined as the percentage of hemolysis.

[9] = test system: Enterococcus faecium LMG16003 (VRE); type: cell-based; settings: as stated in the abstract
Experimental: Minimal inhibitory concentration (MIC) values were determined through broth microdilution following standard guidelines.[29]

[10] = Effect of temperature on antibacterial activity (thermal stability); type: physicochemical; settings: higher temperatures of 22, 55, 70, 90 °C, 8 h storage; read-out inhibition zone area on L. lactis MG1363 relative to 0 h; three independent experiments
Experimental: Figure S4. Investigation of the thermal stability profile of nisin (compound 1) and compound 47. Thermal stability was evaluated across a temperature range from 22 to 90 °C within an 8-hour incubation period.
Relative antimicrobial activity of the peptides following exposure to different temperatures. The relative activity was determined by calculating the area at different time points divided by the area at the start point (labeled 0 h), multiplied by 100%. Three independent experiments were conducted.

C=C(NC(=O)[C@@H](NC(=O)[C@H](Cc1c[nH]cn1)NC(=O)[C@@H](NC(=O)[C@H](CO)NC(=O)[C@@H]1CS[C@@H](C)[C@H]2NC(=O)[C@H](C)NC(=O)[C@H](NC(=O)[C@H](CCCCN)NC(=O)[C@@H](NC(=O)[C@H](CC(N)=O)NC(=O)[C@@H]3CS[C@@H](C)[C@@H](NC(=O)[C@H](CCCCN)NC(=O)[C@@H]4CS[C@@H](C)[C@@H](NC(=O)[C@@H]5CSC[C@@H](NC(=O)/C(=C/C)NC(=O)[C@@H](N)[C@@H](C)CC)C(=O)N[C@@H]([C@@H](C)CC)C(=O)NC(=C)C(=O)N[C@@H](CC(C)C)C(=O)N5)C(=O)N5CCC[C@H]5C(=O)NCC(=O)N4)C(=O)NCC(=O)N[C@@H](C)C(=O)N[C@@H](CC(C)C)C(=O)N[C@@H](CCn4cc(CCCCCCCC)nn4)C(=O)NCC(=O)N3)C(C)C)[C@H](C)SC[C@H](NC2=O)C(=O)N[C@@H](Cc2c[nH]cn2)C(=O)N1)[C@@H](C)CC)C(C)C)C(=O)N[C@@H](CCCCN)C(=O)O [compound 16]
Antimicrobial activity, diameter rating (S. aureus LMG10147): + (0–4 mm, +) | Antimicrobial activity, diameter rating [1]: ++++ (12–16 mm, ++++) | Antimicrobial activity, diameter rating [2]: + (0–4 mm, +) | Antimicrobial activity, diameter rating (Escherichia coli CECT101): + (0–4 mm, +) | Area1: area of the inhibition zone minus the well area, Enterococcus faecium (Enterococcus faecium; Figure 4, second round, 30 μL click reaction solution in 8 mm well, GM17 agar, overnight 37 °C, triplicate): 51 mm^2 | Antibacterial activity against Enterococcus faecium (in words) (Enterococcus faecium): high potency of nisin against Enterococcus faecium was retained | Antimicrobial activity, diameter rating (L. monocytogenes TT82E): ++ (4–8 mm, + +) | Antimicrobial activity, diameter rating [3]: ++++ (12–16 mm, ++++) | Antimicrobial activity, diameter rating (E. faecium LMG11423): +++++ (16–20 mm, +++++) | Antimicrobial activity, diameter rating [4]: ++ (4–8 mm, + +) | Area2: area of the inhibition zone minus the well area, Listeria monocytogenes (Listeria monocytogenes): 19 mm^2 | Antimicrobial activity, diameter rating [5]: ++ (4–8 mm, + +) | Antimicrobial activity, diameter rating [6]: ++++ (12–16 mm, ++++) | Antimicrobial activity, diameter rating (B. cereus CH-85): ++ (4–8 mm, + +) | Antimicrobial activity, diameter rating [7]: ++++ (12–16 mm, ++++)

C=C(NC(=O)[C@@H](NC(=O)[C@H](Cc1c[nH]cn1)NC(=O)[C@@H](NC(=O)[C@H](CO)NC(=O)[C@@H]1CS[C@@H](C)[C@H]2NC(=O)[C@H](C)NC(=O)[C@H](NC(=O)[C@H](CCCCN)NC(=O)[C@@H](NC(=O)[C@H](CC(N)=O)NC(=O)[C@@H]3CS[C@@H](C)[C@@H](NC(=O)[C@H](CCCCN)NC(=O)[C@@H]4CS[C@@H](C)[C@@H](NC(=O)[C@@H]5CSC[C@@H](NC(=O)/C(=C/C)NC(=O)[C@@H](N)[C@@H](C)CC)C(=O)N[C@@H]([C@@H](C)CC)C(=O)NC(=C)C(=O)N[C@@H](CC(C)C)C(=O)N5)C(=O)N5CCC[C@H]5C(=O)NCC(=O)N4)C(=O)NCC(=O)N[C@@H](C)C(=O)N[C@@H](CC(C)C)C(=O)N[C@@H](CCn4cc(CCCc5ccccc5)nn4)C(=O)NCC(=O)N3)C(C)C)[C@H](C)SC[C@H](NC2=O)C(=O)N[C@@H](Cc2c[nH]cn2)C(=O)N1)[C@@H](C)CC)C(C)C)C(=O)N[C@@H](CCCCN)C(=O)O [compound 47]
Binding to lipid II (effect of added purified lipid II on the inhibition halo) [8]: retained its ability to bind to lipid II | Antimicrobial activity, diameter rating (S. aureus LMG10147): + (0–4 mm, +) | Antimicrobial activity, diameter rating [1]: ++++ (12–16 mm, ++++) | Antimicrobial activity, diameter rating [2]: + (0–4 mm, +) | Antimicrobial activity, diameter rating (Escherichia coli CECT101): + (0–4 mm, +) | Antibacterial activity against Enterococcus faecium (in words) (Enterococcus faecium): high potency of nisin against Enterococcus faecium was retained | Antimicrobial activity, diameter rating (L. monocytogenes TT82E): ++ (4–8 mm, + +) | Loss in antimicrobial activity after exposure to proteinase K (proteinase K): 77% | Antimicrobial activity, diameter rating [3]: ++++ (12–16 mm, ++++) | Loss in antimicrobial activity after exposure to chymotrypsin (chymotrypsin): 16% | Antimicrobial activity, diameter rating (E. faecium LMG11423): +++++ (16–20 mm, +++++) | Antimicrobial activity, diameter rating [4]: ++ (4–8 mm, + +) | Concentration with minimal hemolytic activity (200 mg/L) relative to MIC against Enterococcus faecium (human red blood cells): 50 fold | MIC value against E. faecium strains [9]: 3.8 µg/mL (≈ 1.1 µM) | Antimicrobial activity, diameter rating [5]: ++ (4–8 mm, + +) | Loss in antimicrobial activity on storage at elevated temperature [10]: Less than 40% | Antimicrobial activity, diameter rating [6]: ++++ (12–16 mm, ++++) | Antimicrobial activity, diameter rating (B. cereus CH-85): ++ (4–8 mm, + +) | Antimicrobial activity, diameter rating [7]: ++++ (12–16 mm, ++++)
